Activity calls are given as the source filed them.
How the values were obtained:
[1] = LGR2 antagonists, dose response, cell-based, HEK293, CRE-luciferase reporter, cherry pick, set 2 (AID 743343); type: functional;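 note: transfected cells were stimulated with diluted bursicon conditioned medium after compound addition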
[2] = MC4R antagonists, dose response, counter-screen for LGR2 antagonist project, cell-based, plate reader, cherry pick (AID 743444); type: functional;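 note: transfected HEK 293 cells stimulated with alpha-MSH peptide; potency of inhibitors of the alpha-MSH evoked signal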
[3] = HepG2 cell cytotoxicity, dose response, cytotoxicity control, plate reader, cherry-pick, antagonist series (AID 743416); type: functional, cell-based
[4] = Luminescence Cell-Based Dose Response HTS to Identify Inhibitors of 5'UTR Stem-Loop Driven Prion Protein mRNA Translation in H4 Neuroglioblastoma Cells. [Related pubchem assays: 1827 (Project Summary), 1813 (Primary HTS)]; type: functional
[5] = inhibitors of SNCA 5'UTR-driven reporter translation, confirmation, H4 neuroglioma cells, luminescence (AID 1988); type: functional, cell-based
[6] = A549 cell cytotoxicity, dose response, cytotoxicity control, plate reader, cherry-pick, antagonist series (AID 743412); type: functional, cell-based
[7] = inhibitors of clade B AD8 Env fusion, dose response, cell-based, cherry-pick (AID 652062); type: functional;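 note: luciferase signal from cell-cell fusion driven by HIV-1 clade B AD8 Env; potency is for inhibitors of fusion seen as a drop in luminescence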
[8] = ZM109 Env clade C HIV-1 fusion inhibitors, dose response, HeLa effector, CEM target cells, luciferase, cherry-pick (AID 652058); type: functional, cell-based
[9] = inhibitors of HIV Env-driven cell fusion, dose response, cherry-pick (AID 652057); type: functional, cell-based
[10] = off-target signal loss in HeLa-CEM21 co-culture – HeLa F-luc CTL cells, cherry-picked, counter-screen for HIV-1 Env fusion inhibitor project, dose response (AID 652040); type: functional, cell-based;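 note: potency for signal decrease marking cytotoxic or nonspecific inhibition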
Melanocortin receptor 4 = Melanocortin receptor 4 (Homo sapiens, UniProt P32245); type: functional, cell-based;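 note: Cell-based assay with luminescence read-out, confirmatory dose-response testing for agonist activity of biased ligands at MC4R; human U2OS cells with tagged receptor and beta-arrestin; potency of agonists that increase receptor coupling to beta-arrestin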
[11] = cytotoxicity toward NIH3T3 fibroblasts, dose response, counter-screen, cell-based, ATP luminescence, mouse fibroblasts (AID 2010); type: functional;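 note: cells exposed to compound for about 90 hours before reading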
[12] = target: T1, Ubiquitin-conjugating enzyme E2 N (Homo sapiens, UniProt P61088); type: functional;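 note: Dose-response confirmation in a TR-FRET assay detecting UBC13-driven polyubiquitin chain formation, inhibition measured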
T1 sequence (P61088 whole entry): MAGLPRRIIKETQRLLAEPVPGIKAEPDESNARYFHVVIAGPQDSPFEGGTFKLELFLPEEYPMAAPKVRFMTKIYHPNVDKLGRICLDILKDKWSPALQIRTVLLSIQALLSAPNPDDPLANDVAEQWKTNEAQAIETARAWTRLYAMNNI

HEK293 [13] = test: optical interference in Abeta FP readout, dose response, artefact control for IDE activator project, biochemical, fluorescence polarization (AID 588442); type: functional, cell-based; details: Homo sapiens
[14] = inhibitors of intracellular T. cruzi replication, confirmation, NIH3T3 host cells, beta-gal luminescence (AID 2044); type: functional, cell-based;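 note: intracellular parasites grown in NIH/3T3 mouse fibroblasts as host cells; luminescent beta-galactosidase reporter signal from transgenic T. cruzi replicating inside host cells; inhibitors lower the luminescence signal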
Insulin-degrading enzyme [15] = target: T2, Insulin-degrading enzyme (Homo sapiens, UniProt P14735); test: activators of endogenous IDE in HEK cells, dose response, cell-based, fluorescence polarization (AID 588439); type: functional
T2 sequence (P14735 whole entry): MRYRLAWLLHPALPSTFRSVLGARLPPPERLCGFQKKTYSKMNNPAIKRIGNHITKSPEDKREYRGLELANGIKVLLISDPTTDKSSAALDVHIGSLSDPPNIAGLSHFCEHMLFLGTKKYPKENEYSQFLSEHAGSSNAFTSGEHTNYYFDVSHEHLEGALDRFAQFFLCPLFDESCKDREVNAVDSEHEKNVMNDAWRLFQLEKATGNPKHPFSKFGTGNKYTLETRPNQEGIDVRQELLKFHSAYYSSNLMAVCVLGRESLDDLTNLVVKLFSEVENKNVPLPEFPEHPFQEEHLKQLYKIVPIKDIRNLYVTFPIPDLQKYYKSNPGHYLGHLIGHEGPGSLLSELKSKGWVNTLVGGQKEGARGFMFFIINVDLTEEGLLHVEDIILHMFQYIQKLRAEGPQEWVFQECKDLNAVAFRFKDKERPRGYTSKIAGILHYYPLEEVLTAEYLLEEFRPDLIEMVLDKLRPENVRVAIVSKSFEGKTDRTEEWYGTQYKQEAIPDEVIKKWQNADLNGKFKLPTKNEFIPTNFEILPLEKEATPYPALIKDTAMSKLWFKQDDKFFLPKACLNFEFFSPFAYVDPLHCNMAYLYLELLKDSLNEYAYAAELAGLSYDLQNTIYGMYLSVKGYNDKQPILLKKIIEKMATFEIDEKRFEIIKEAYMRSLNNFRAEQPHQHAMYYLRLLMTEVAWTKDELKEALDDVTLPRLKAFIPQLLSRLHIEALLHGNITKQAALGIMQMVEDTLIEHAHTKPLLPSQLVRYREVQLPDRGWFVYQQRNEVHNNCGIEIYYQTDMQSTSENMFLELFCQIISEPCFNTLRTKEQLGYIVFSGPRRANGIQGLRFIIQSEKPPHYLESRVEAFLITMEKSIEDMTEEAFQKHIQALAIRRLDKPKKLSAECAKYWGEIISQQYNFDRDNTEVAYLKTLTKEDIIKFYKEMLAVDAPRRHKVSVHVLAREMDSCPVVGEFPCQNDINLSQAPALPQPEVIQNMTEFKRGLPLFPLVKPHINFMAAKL

Insulin-degrading enzyme [16] = target: T2, Insulin-degrading enzyme; test: activators of recombinant IDE enzyme, dose response, counter-screen for IDE activator project, biochemical, fluorescence polarization (AID 588681)
HEK293 [17] = test: HEK cell cytotoxicity by LDH release, dose response, cytotoxicity control for IDE activator project, fluorescence, HEK cells (AID 588440); type: functional, cell-based; details: Homo sapiens;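 note: cytotoxicity by LDH release measuring loss of membrane integrity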
[18] = C. albicans growth with fluconazole, confirmation, fluorescence, retest (AID 2467); type: functional, cell-based
[19] = target: T3, Serine/threonine-protein phosphatase (Candida dubliniensis (strain CD36 / CBS 7987 / NCPF 3949 / NRRLY-17841) (Yeast), UniProt B9W6M3); test: calcineurin pathway inhibitors in yeast reporter, dose response, S. cerevisiae, CDRE-lacZ, luminescence, secondary (AID 2388); type: functional, cell-based;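 note: yeast reporter cells carrying a calcineurin-responsive lacZ construct stimulated with calcium chloride; luminescent beta-galactosidase reporter signal in whole cells rather than isolated phosphatase activity; potency for inhibition where a drop in reporter signal means calcineurin blockade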
T3 sequence (B9W6M3 whole entry): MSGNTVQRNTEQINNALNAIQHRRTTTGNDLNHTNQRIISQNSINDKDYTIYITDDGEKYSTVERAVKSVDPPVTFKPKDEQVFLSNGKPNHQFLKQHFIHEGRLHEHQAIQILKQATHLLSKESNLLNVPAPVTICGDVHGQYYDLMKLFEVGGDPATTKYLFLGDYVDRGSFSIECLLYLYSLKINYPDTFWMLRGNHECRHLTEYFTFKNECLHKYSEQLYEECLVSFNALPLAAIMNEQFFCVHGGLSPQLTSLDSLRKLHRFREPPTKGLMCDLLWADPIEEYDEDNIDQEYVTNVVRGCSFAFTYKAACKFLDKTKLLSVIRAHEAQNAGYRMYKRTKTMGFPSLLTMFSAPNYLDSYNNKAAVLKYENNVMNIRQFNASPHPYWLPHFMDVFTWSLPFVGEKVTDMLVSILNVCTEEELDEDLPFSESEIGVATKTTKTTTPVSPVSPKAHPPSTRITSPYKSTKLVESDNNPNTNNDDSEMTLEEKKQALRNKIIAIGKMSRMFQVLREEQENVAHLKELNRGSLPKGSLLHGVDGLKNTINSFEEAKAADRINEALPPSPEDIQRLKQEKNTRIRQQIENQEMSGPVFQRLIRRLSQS

[20] = NIH-3T3 fibroblast cytotoxicity, dose response, cytotoxicity control, cell-based, fluorescence, Alamar Blue, secondary assay (AID 2327); type: functional;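 note: NIH-3T3 mouse fibroblasts cultured with fluconazole at 8 µg/mL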
[21] = target: ATP-dependent molecular chaperone HSP82 (Candida albicans (strain WO-1) (Yeast), UniProt C4YTQ8); test: loss of DOC-induced GRE-beta-galactosidase reporter signal, dose response, Hsp90 inhibitor project, S. cerevisiae, luminescence (AID 2400); type: functional, cell-based;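 note: beta-galactosidase luminescence from glucocorticoid response element reporter as proxy for Hsp90 function; inhibitor potency where signal loss means Hsp90 inhibition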
[22] = target: T4, Hepatocyte nuclear factor 4-alpha (Homo sapiens, UniProt P41235); type: functional, cell-based;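 note: biochemical luminescence-based dose-response counterscreen measuring inhibition of HNF4 dimerization, run alongside a screen for blockers of ABHD5–perilipin-5 interaction; split luciferase complementation of HNF4 fusion proteins in cell lysate measuring dimerization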
T4 sequence (P41235 whole entry): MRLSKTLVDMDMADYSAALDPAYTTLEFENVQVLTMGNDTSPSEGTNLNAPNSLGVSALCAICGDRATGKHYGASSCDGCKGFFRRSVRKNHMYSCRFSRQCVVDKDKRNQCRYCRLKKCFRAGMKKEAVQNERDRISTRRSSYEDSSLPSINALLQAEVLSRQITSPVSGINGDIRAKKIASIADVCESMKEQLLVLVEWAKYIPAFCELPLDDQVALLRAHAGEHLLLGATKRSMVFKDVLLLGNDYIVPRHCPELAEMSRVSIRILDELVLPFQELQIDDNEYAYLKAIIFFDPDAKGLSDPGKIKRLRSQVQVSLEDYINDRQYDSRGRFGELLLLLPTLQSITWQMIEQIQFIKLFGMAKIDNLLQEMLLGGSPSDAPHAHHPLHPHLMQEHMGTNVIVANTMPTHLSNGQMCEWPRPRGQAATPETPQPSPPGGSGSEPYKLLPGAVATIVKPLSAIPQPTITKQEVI

Melanocortin receptor 4, sequence (P32245 whole entry): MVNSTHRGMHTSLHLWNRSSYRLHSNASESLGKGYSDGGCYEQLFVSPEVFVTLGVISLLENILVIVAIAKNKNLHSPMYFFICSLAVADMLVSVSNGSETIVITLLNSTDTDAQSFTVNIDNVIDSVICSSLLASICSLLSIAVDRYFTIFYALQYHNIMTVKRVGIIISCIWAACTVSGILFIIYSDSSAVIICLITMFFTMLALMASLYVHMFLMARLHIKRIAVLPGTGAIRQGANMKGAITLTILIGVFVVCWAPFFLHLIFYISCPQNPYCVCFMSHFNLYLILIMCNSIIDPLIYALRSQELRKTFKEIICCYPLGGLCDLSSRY
ATP-dependent molecular chaperone HSP82, sequence (C4YTQ8 whole entry, the tested form may be a part): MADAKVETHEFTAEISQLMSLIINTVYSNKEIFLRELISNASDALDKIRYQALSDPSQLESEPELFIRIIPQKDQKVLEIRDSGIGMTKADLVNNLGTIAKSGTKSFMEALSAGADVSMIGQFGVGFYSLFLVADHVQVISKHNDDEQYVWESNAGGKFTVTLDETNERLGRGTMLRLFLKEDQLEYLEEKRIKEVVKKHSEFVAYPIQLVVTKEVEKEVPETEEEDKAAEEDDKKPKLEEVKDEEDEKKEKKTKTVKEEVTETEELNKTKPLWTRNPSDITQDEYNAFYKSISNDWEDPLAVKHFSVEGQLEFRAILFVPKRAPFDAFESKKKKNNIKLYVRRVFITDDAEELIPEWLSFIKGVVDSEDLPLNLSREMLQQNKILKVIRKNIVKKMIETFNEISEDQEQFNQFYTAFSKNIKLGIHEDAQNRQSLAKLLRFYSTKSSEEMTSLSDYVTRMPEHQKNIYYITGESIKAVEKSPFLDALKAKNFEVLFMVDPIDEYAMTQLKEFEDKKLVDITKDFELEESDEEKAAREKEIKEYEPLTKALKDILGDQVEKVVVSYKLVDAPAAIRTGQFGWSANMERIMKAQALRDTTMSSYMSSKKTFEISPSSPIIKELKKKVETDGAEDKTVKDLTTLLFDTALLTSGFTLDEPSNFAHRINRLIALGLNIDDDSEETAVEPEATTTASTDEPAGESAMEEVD

## Cc1ccc(NC(=O)c2ccc3c(c2)OCCO3)cc1C
[1]
  AC50: 5.65 µM (active)
[2]
  AC50: 7.61 µM (active)
[3]
  AC50: > 52 µM (inactive)
[4]
  EC50: 5.06 µM (active)
[5]
  EC50: 3.68 µM (active)
[6]
  AC50: > 52 µM (inactive)

## Sc1ncc(-c2ccccc2)n1-c1cccc(Cl)c1
[7]
  AC50: 21.3 µM (active)
[8]
  AC50: 16.1 µM (active)
[9]
  AC50: 11.7 µM (active)
[10]
  AC50: 17.1 µM (active)

## O=C(CCN1C(=O)/C(=C/C=C/c2ccccc2)SC1=S)Nc1cccnc1
Melanocortin receptor 4
  EC50: > 89.2 µM (inactive)

## CCN1CCN(CCNC(=O)c2ccc(/C=C3/Sc4ccccc4N(Cc4cccc(C)c4)C3=O)cc2)CC1
[11]
  EC50: 8.45 µM (active)
[12]
  IC50: > 20 µM (inactive)
HEK293 [13]
  EC50: > 54.7 µM (inactive)
[14]
  EC50: 1.29 µM (active)
Insulin-degrading enzyme [15]
  EC50: 23.2 µM (inactive)
Insulin-degrading enzyme [16]
  EC50: > 54.7 µM (inactive)
HEK293 [17]
  IC50: 20.2 µM (inactive)

## CCNc1nc(NC(C)C)nc(NC(C)(C)C)n1
[18]
  EC50: 0.11 µM (active)
[19]
  EC50: > 180 µM (inactive)
[20]
  EC50: > 150 µM (inconclusive)
[21]
  EC50: > 160 µM (inactive)

## CC(C)c1ccc(N2C=Nc3ccc(C(C)C)cc3C2)cc1
[22]
  IC50: 22.5 µM (inactive)

Source: ChEMBL document CHEMBL1201862, “PubChem BioAssay data set” (2004)
